Experimental data from paper PMC12040169 (PLOS Biology, 2025).

Experiment: in vitro
Conditions: human, hela cells, % viability

| SMILES | viability at 28.5 h, 10 µM [%] |
| --- | --- |
| COCCN1C(=O)c2ccc(C(=O)Nc3cc(C(=O)O)cc(C(=O)O)c3)cc2C1=O [CBK268444] | 96.5 |
| CN(CC(=O)O)S(=O)(=O)c1ccc(F)c2ccccc12 [CBK268447] | 98.5 |
| CCC(=O)Nc1nc(-c2ccc(C(=O)OC)cc2)nc2c1c(=O)oc1ccccc12 [CBK268449] | 110 |
| CN(C)S(=O)(=O)c1ccc(C(=O)Nc2ccc3ncn(C)c(=O)c3c2)cc1 [CBK268450] | 103 |
| CN1CCN(C(=O)COc2ccc(S(=O)(=O)Nc3ccc(F)cc3)cc2)CC1 [CBK268454] | 94.5 |
| Cc1ccc(Nc2nc(CSc3nnc(-c4ccccc4)o3)cs2)cc1 [CBK268455] | 99.7 |
| CCOc1cc(C2Nc3ccccc3NC3=C2C(=O)C(C(=O)OC)C(C)C3)ccc1OC(C)C (stereo not shown) [CBK268456] | 111 |
| O=C1c2ccc(-c3nc4ccc(Cl)cc4c(=O)o3)cc2C(=O)N1Cc1cccnc1 [CBK268460] | 104 |
| O=C1c2ccccc2C(=O)N1Cc1nc2ccccc2c(=O)n1CCCN1CCOCC1 [CBK268463] | 96.1 |
| CC(C)C(CCC(=O)Nc1ccc([N+](=O)[O-])cc1O)C(=O)O (stereo not shown) [CBK268464] | 102 |
| Cc1nn(CC(=O)Nc2ccc3c(c2)nc(CN2CCCC2)n3C)c(=O)c2ccccc12 [CBK268465] | 97.5 |
| CN1C(CC(O)c2ccccc2)CCCC1C(=O)c1ccccc1 (stereo not shown) [CBK268467C] | 98.8 |
| O=C(CN1CCOCC1)Nc1ccc(S(=O)(=O)N2CCCC2)cc1 [CBK268468] | 103 |
| CCOC(=O)CC(=O)CSc1nc2nc(C)cc(C)n2n1 [CBK268469] | 99.8 |
| COc1cc(NC(=O)C(C)Oc2cccc(Cl)c2)c(C(=O)O)cc1OC (stereo not shown) [CBK268470] | 92.4 |
| O=C1c2ccccc2C(=O)N1Cc1nc2ccccc2c(=O)n1CCN1CCOCC1 [CBK268472] | 105 |
| Cn1c(CN2CCN(C(=O)c3ccco3)CC2)nc2cc([N+](=O)[O-])ccc21 [CBK268473] | 108 |
| CCc1nnc2sc(-c3ccc(C)c(NC(=O)c4ccc(N5CCCCC5)c([N+](=O)[O-])c4)c3)nn12 [CBK268476] | 91.5 |
| O=C1COc2ccc(S(=O)(=O)NCCOc3ccccc3)cc2N1 [CBK268480] | 95.9 |
| S=C(NNC(=S)Nc1ccc(Cl)c(Cl)c1)Nc1cccnc1 [CBK268483] | 96.2 |
| O=[N+]([O-])c1cccc(S(=O)(=O)NCCOc2cccc3cccnc23)c1 [CBK268489] | 98.6 |

| SMILES | viability at 28.5 h, 10 µM [%] |
| --- | --- |
| CS(=O)(=O)N1CCCC(C(=O)Nc2ccc(S(N)(=O)=O)cc2)C1 (stereo not shown) [CBK268490] | 83 |
| CCCC12CN3CC(C)(CN(C1)C31C(=O)Nc3ccc(C)cc31)C2=O (stereo not shown) [CBK268491] | 113 |
| Cc1ccc(CSCCNS(=O)(=O)c2ccc([N+](=O)[O-])cc2)cc1 [CBK268496] | 108 |
| O=C(CSCc1c(F)cccc1Cl)Nc1ccc(S(=O)(=O)N2CCCCCC2)cc1 [CBK268497] | 100 |
| O=C(O)c1ccc(-n2nnnc2Sc2nc([N+](=O)[O-])nn2Cc2ccccc2F)cc1 [CBK268498] | 91.5 |
| Clc1ccc(-n2c(COc3cccc4cccnc34)nnc2SCc2ccccc2)cc1 [CBK268502] | 103 |
| O=[N+]([O-])c1nn(-c2ccccc2)[n+]([O-])c1Nc1ccc(Br)cc1 [CBK268504] | 98.7 |
| O=C(Cc1cccs1)Nc1cccc(C(=O)Nc2cccc(C(=O)O)c2)c1 [CBK268509] | 105 |
| CC(C)(CSc1ccccn1)NS(=O)(=O)c1ccccc1 [CBK268513] | 102 |
| Cc1c(C(N)=O)sc2ncn(CC(=O)NCCc3ccccc3)c(=O)c12 [CBK268514] | 90.4 |
| CCn1c(SCC(=O)Nc2ccc(C(C)=O)cc2)nnc1-c1cc(Br)ccc1O [CBK268515] | 89.2 |
| O=C(COc1ccc(S(=O)(=O)N2CCCCC2)cc1)NCc1ccccn1 [CBK268517] | 91.6 |
| CN(C)S(=O)(=O)c1ccc2[nH]cc(CCN)c2c1 [CBK268522C] | 99.7 |
| O=C(O)CC(C(=O)O)c1ccc(Cl)cc1Cl (stereo not shown) [CBK268523] | 95.5 |
| Cc1ccc(S(=O)(=O)N(C)CC(=O)NCc2nc(-c3ccccc3)no2)cc1 [CBK268524] | 93.4 |
| COc1ccc(S(=O)(=O)N(CC(=O)N2CCc3ccccc3C2)C2CCCCC2)cc1Cl [CBK268525] | 97.9 |
| Cc1nn2c(COc3ccc(NC(=O)C4CCCCC4)cc3)nnc2c2ccccc12 [CBK268528] | 104 |
| O=C(O)CC(C(=O)O)c1ccc(F)cc1 (stereo not shown) [CBK268531] | 87.6 |
| N#Cc1ccccc1Cn1cc(C(=O)COc2ccccc2)c2ccccc21 [CBK268532] | 90.5 |
| Cn1c(Cc2cccs2)nnc1SCC(=O)c1c[nH]c2ccccc12 [CBK268534] | 102 |
| CCOc1ccccc1OCc1nn2c(-c3ccncc3)nnc2s1 [CBK268535] | 111 |

| SMILES | viability at 28.5 h, 10 µM [%] |
| --- | --- |
| O=C(Nc1cnn(C23CC4CC(CC(C4)C2)C3)c1)c1cnn2c(C(F)(F)F)cc(-c3ccco3)nc12 [CBK268538] | 52.4 |
| CS(=O)(=O)N(CC(=O)Nc1ccccc1-c1ccccc1)c1ccc(F)c(Cl)c1 [CBK268539] | 91.2 |
| Cn1c(NCc2ccccn2)nc2ccccc21 [CBK268544] | 110 |
| COc1ccc(CNc2nc(-c3ccc(C)cc3)nn2C(=O)c2cccc([N+](=O)[O-])c2)cc1 [CBK268546] | 67.9 |
| O=C(COc1ccc(S(=O)(=O)N2CCCCC2)cc1)N1CCC(Cc2ccccc2)CC1 [CBK268547] | 108 |
| O=C(CSCc1ccc([N+](=O)[O-])cc1)Nc1c[nH]c(=O)[nH]c1=O [CBK268549] | 98.5 |
| Fc1ccccc1COc1cccc(CNCc2ccccn2)c1 [CBK268552C] | 101 |
| COC(=O)c1ccc2c(=O)n(CCN3CCOCC3)c(=S)[nH]c2c1 [CBK268553] | 69 |
| Cc1ccc(S(=O)(=O)NCc2ccccc2)c(C)c1NS(C)(=O)=O [CBK268555] | 90.2 |
| c1cnc2c(OCc3nc4ccccc4[nH]3)cccc2c1 [CBK268556] | 74.6 |
| O=C(COc1ccc(S(=O)(=O)N2CCCC2)cc1Cl)Nc1ccc2c(c1)OCCO2 [CBK268559] | 116 |
| CC(Oc1ccc(Cl)cc1Cl)C(=O)Nc1ccc(N2CCN(C)CC2)c(Cl)c1 (stereo not shown) [CBK268563] | 85 |
| Cc1cccc(C(=O)Nc2ccccc2C(=O)N2CCN(C)CC2)c1 [CBK268565] | 89 |
| O=C(O)c1cccc(C(=O)Nc2cccc(NC(=O)C3CCCO3)c2)c1 (stereo not shown) [CBK268566] | 108 |
| Cc1ccc(SC(C)C(=O)O/N=C(\N)c2ccccn2)cc1 (stereo not shown) [CBK268567] | 111 |
| Cc1ccccc1OC(C)C(=O)NCCCc1ccccc1 (stereo not shown) [CBK268571] | 88.3 |
| CCOc1ccccc1NC(=O)c1ccc(CS(=O)(=O)c2ccc(C)cc2)cc1 [CBK268572] | 95.1 |
| O=C(CCN1C(=O)c2cc(Cl)c(Cl)cc2C1=O)Nc1cccc(-c2cnc3ccccc3n2)c1 [CBK268575] | 114 |
| Cc1ccc(NS(=O)(=O)c2cc(C(=O)N3CCN(C)CC3)ccc2C)cc1 [CBK268577] | 92.5 |
